Experimental data reported in patent US8044045B2, “Indazole-carboxamide compounds as 5-HT4 receptor agonists” (Theravance, Inc., priority 2004, dated 2011).

Assay: Pharmacokinetic study in the rat
Assay type: in vivo
Protocol: Aqueous solution formulations of test compounds were prepared in 0.1% lactic acid at a pH of between about 5 and about 6. Male Sprague-Dawley rats (CD strain, Charles River Laboratories, Wilmington, Mass.) were dosed with test compounds via intravenous administration (IV) at a dose of 2.5 mg/kg or by oral gavage (PO) at a dose of 5 mg/kg. The dosing volume was 1 mL/kg for IV and 2 mL/kg for PO administration. Serial blood samples were collected from animals pre-dose, and at 2 (IV only), 5, 15, and 30 min, and at 1, 2, 4, 8, and 24 hours post-dose. Concentrations of test compounds in blood plasma were determined by liquid chromatography-mass spectrometry analysis (LC-MS/MS) (MDS SCIEX, API 4000, Applied Biosystems, Foster City, Calif.) with a lower limit of quantitation of 1 ng/mL.
Standard pharmacokinetic parameters were assessed by non-compartmental analysis (Model 201 for IV and Model 200 for PO) using WinNonlin (Version 4.0.1, Pharsight, Mountain View, Calif.). The maximum in the curve of test compound concentration in blood plasma vs. time is denoted Cmax. The area under the concentration vs. time curve from the time of dosing to the last measurable concentration (AUC(0-t)) was calculated by the linear trapezoidal rule. Oral bioavailability (F(%)), i.e. the dose-normalized ratio of AUC(0-t) for PO administration to AUC(0-t) for IV administration, was calculated as: F(%)=AUCPO/AUCIV×DoseIV/DosePO×100%

[1] = male Sprague-Dawley rats, blood plasma, PO 5 mg/kg

CC(=O)N1CCN(CCN2[C@@H]3CC[C@H]2CC(NC(=O)c2nn(C(C)C)c4ccccc24)C3)CC1 (stereo partly drawn) [Example 1, 1-isopropyl-1H-indazole-3-carboxylic acid {(1S,3R,5R)-8-[2-(4-acetylpiperazin-1-yl)ethyl]-8-azabicyclo[3.2.1]oct-3-yl}amide]
AUC(0-t) [1]: 730 ng·h/mL | Cmax [1]: 250 ng/mL | oral bioavailability (F(%)) (rat, PO 5 mg/kg versus IV 2.5 mg/kg, dose-normalized AUC(0-t) ratio): about 100%
